Data taken from PMC11360483, “Anti-Inflammatory, Antibacterial, Anti-Biofilm, and Anti-Quorum Sensing Activities of the Diterpenes Isolated from Clinopodium bolivianum” (Pharmaceutics, 2024).
Converted amounts (≈) assume the structure as drawn. “And” between values parts separate entries of the source, which are not always exact repeats. Identical values can stand only once. Counter-ions that a name gives are not always drawn. Like-named read-outs stand apart in the source and are kept apart here. *1 amine or outer side, *2 acyl side, *3 side chain or, on linkers, in order; H or OH if unused. Where a SMILES comes first, the peptide text is derived from it. Bridges are numbered along the chain shown (N, C = ends). Roman numbers before positions name the chains, in order. [ ]: non-standard residue; d: D form. Actinocin(9to1) = Cc1c2oc3c(C)ccc(C(=O)[*:1])c3nc-2c(C(=O)[*:2])c(N)c1=O; NMeV = CN[C@H](C(=O)O)C(C)C; Sar = CNCC(=O)O

Experiments:
[1] = tested on: NF-κB; assay: NF-κB inhibition assay (LPS-stimulated) in HBEC3-KT; format: cell-based; conditions: Homo sapiens, 24 h, read-out: NF-κB Inhibition at 24 h IC50 ± SEM
[2] = tested on: NF-κB; assay: NF-κB inhibition assay (LPS-stimulated) in MRC-5; format: cell-based; conditions: Homo sapiens, read-out: NF-κB Inhibition at 24 h IC50 ± SEM
[3] = tested on: NF-κB; assay: NF-κB inhibition assay (LPS-stimulated) in THP-1; format: cell-based; conditions: Homo sapiens, read-out: NF-κB Inhibition at 24 h IC50 ± SEM
[4] = tested on: H. influenzae; assay: microbe, parasite or virus in culture; format: cell-based; conditions: Haemophilus influenzae, 24 h
[5] = tested on: L. pneumophila; assay: microbe, parasite or virus in culture; format: cell-based; conditions: Legionella pneumophila, 24 h
[6] = tested on: S. pneumoniae; assay: microbe, parasite or virus in culture; format: cell-based; conditions: Streptococcus pneumoniae, 24 h
[7] = tested on: S. aureus; assay: microbe, parasite or virus in culture; format: cell-based; conditions: Staphylococcus aureus, 24 h
[8] = tested on: H. influenzae; format: cell-based, Haemophilus influenzae
[9] = tested on: L. pneumophila; format: cell-based, Legionella pneumophila
[10] = tested on: S. pneumoniae; format: cell-based, Streptococcus pneumoniae
[11] = tested on: S. aureus; format: cell-based, Staphylococcus aureus
[12] = tested on: C. violaceum; assay: Anti-biofilm activity on C. violaceum; format: cell-based, Chromobacterium violaceum
[13] = tested on: C. violaceum; format: cell-based, Chromobacterium violaceum; conditions: for % of Violacein Inhibition: at the Anti-QS concentration (compound 3 at 0.94 µM, compound 4 at 1.16 µM)
[14] = tested on: H. influenzae, L. pneumophila, S. pneumoniae, and S. aureus; assay: organism not typed; format: cell-based
[15] = tested on: Hep3B cells; set-up: method as in PMID 37423053; conditions: cited from earlier work
[16] = tested on: Huh7 cells; set-up: method as in PMID 37423053; conditions: cited from earlier work
[17] = WST-1 cytotoxicity assay, cell line not singled out; conditions: human
[18] = WST-1 cytotoxicity (viability) assay, control cell line; conditions: human
[19] = WST-1 cytotoxicity (viability) assay; conditions: human, WST-1, 24 h, HBEC3-KT
[20] = WST-1 cytotoxicity (viability) assay; conditions: human, WST-1, 24 h, MRC-5
[21] = tested on: H. influenzae, L. pneumophila, S. pneumoniae, and S. aureus; format: cell-based; conditions: strain not stated
[22] = tested on: RAW 264.7 cells; set-up: method as in doi:10.1016/j.phytol.2020.01.005; conditions: read-out: IC50, inhibition of nitric oxide (NO) production; cited from earlier work
[23] = tested on: H. influenzae, L. pneumophila, S. pneumoniae, and S. aureus; format: cell-based; conditions: strain not stated; remark: listed apart in the source
[24] = MRC5, MRC-5, LPS-stimulated, 24 h
[25] = range over S. pneumoniae and S. aureus Gram-positive bacteria
[26] = value given in the method for the compounds
[27] = value given in the method for the extracts

| SMILES | IC50 ([1]; LPS-stimulated) | IC50 [2, 24] | IC50 ([3]; THP-1, LPS-stimulated, 24 h) | MIC [4] | MIC [5] | MIC [6] | MIC [7] | Quorum Sensing Inhibition at 24 h Anti-QS ± SEM [8] | Quorum Sensing Inhibition at 24 h Anti-QS ± SEM [9] | Quorum Sensing Inhibition at 24 h Anti-QS ± SEM [10] | Quorum Sensing Inhibition at 24 h Anti-QS ± SEM [11] | BIC [12] | Anti-QS [13] | % of Violacein Inhibition [13] | CC50 at 24 h [18] | further results |
| --- | --- | --- | --- | --- | --- | --- | --- | --- | --- | --- | --- | --- | --- | --- | --- | --- |
| CC1=C2C=C3CCC4C(C)(C)CCC[C@]4(C)C3CC2OC1=O (single isomer, unassigned; (-)) [Compound 3, (−)-Jolkinolide E] | 18 ± 0.37 µM | 23.96 ± 0.21 µM | 29.4 ± 0.48 µM | 4.89 µM (≈ 1.47 µg/mL) | 1.71 µM (≈ 0.514 µg/mL) | 0.53 µM (≈ 0.159 µg/mL) | 1.09 µM (≈ 0.327 µg/mL) | 0.64 ± 0.01 µM | 0.31 ± 0.03 µM | 3.01 ± 0.07 µM | 4.88 ± 0.09 µM | 1.62 ± 0.06 µM | 0.94 ± 0.03 µM | 78.13% | 71.2 µM | MIC [14, 25]: 0.53 to 1.09 µM; cytotoxicity [15]: 37.23 µM; cytotoxicity [16]: 39.53 µM; CC50 at 24 h [17]: > 70 µM |
| Cc1c2oc3c(C)ccc(C(=O)N[C@@H]4C(=O)N[C@H](C(C)C)C(=O)N5CCC[C@H]5C(=O)N(C)CC(=O)N(C)[C@@H](C(C)C)C(=O)O[C@@H]4C)c3nc-2c(C(=O)N[C@@H]2C(=O)N[C@H](C(C)C)C(=O)N3CCC[C@H]3C(=O)N(C)CC(=O)N(C)[C@@H](C(C)C)C(=O)O[C@@H]2C)c(N)c1=O [ACTD, Actinomycin D, reference compound] (I: T[dV]P[Sar][NMeV] / II: T[dV]P[Sar][NMeV]; ester I:1-I:C, II:1-II:C; linker I:N-II:N via Actinocin(9to1)) |  |  |  |  |  |  |  |  |  |  |  |  |  |  |  | CC50 at 24 h [19]: 0.014 µg/mL and 10 nM; CC50 at 24 h [20]: 0.017 µg/mL and 10 nM; CC50 at 24 h ([17]; CC50, cell line not singled out, for the compounds): 0.008 µM; CC50 at 24 h ([17]; CC50 of positive control, value given in the method for the extracts, cell line not stated): 0.01 µg/mL; CC50 at 24 h ([18]; Viability (CC50), WST-1, 24 h, THP-1): 0.019 µg/mL and 10 nM |
| CC1=C(O)C(=O)C=C2C1=CC=C1[C@@]2(C)CC[C@@]2(C)[C@@H]3C[C@](C)(C(=O)O)CC[C@]3(C)CC[C@]12C [CEL, Celastrol, reference compound] |  |  |  |  |  |  |  |  |  |  |  |  |  |  |  | IC50 [1]: 7.15 µM and 3.24 µg/mL; IC50 ([2]; MRC5, 24 h): 7.41 µM and 3.27 µg/mL; IC50 ([3]; THP-1, 24 h): 7.63 µM and 3.34 µg/mL |
| N=C(NCCCCCCNC(=N)NC(=N)Nc1ccc(Cl)cc1)NC(=N)Nc1ccc(Cl)cc1.O=C(O)[C@H](O)[C@@H](O)[C@H](O)[C@H](O)CO.O=C(O)[C@H](O)[C@@H](O)[C@H](O)[C@H](O)CO [CHG, chlorhexidine digluconate] |  |  |  |  |  |  |  |  |  |  |  |  |  |  |  | BIC of reference control [21, 26]: 2.23 µM; BIC of reference control [21, 27]: 2000 µg/mL |
| O=C(O)c1cn(C2CC2)c2cc(N3CCNCC3)c(F)cc2c1=O [CIP, Ciprofloxacin hydrochloride, reference compound] |  |  |  |  |  |  |  |  |  |  |  | 2.13 ± 0.01 µM | 1.51 ± 0.01 µM | 71.68% |  | violacein inhibitory concentration (CIV) ([13]; reference standard): 1.51 µM |
| CC(C)(O)C1=CC2=CCC3[C@](C)(CCC[C@@]3(C)C(=O)O)C2CC1=O (some centres unmarked) [Compound 1, 15-Hydroxy-12-oxo-abietic acid] | 27.9 ± 0.89 µM | 39.01 ± 0.22 µM | 43.4 ± 0.73 µM | 28.3 µM (≈ 9.42 µg/mL) | 20.2 µM (≈ 6.72 µg/mL) | 4.14 µM (≈ 1.38 µg/mL) | 7.88 µM (≈ 2.62 µg/mL) | 4.64 ± 0.09 µM | 2.44 ± 0.09 µM | 9.89 ± 0.04 µM | 12.24 ± 0.08 µM | 11.31 ± 0.07 µM | 4.83 ± 0.05 µM | 20.45% | 88.4 µM |  |
| CC(C)C1=CC2=CC[C@@H]3[C@](C)(CCC[C@@]3(C)C(=O)O)[C@H]2C[C@@H]1O [Compound 2, 12α-Hydroxyabietic acid] | 21.9 ± 0.23 µM | 26.9 ± 0.61 µM | 32.6 ± 0.69 µM | 23.5 µM (≈ 7.47 µg/mL) | 17.2 µM (≈ 5.49 µg/mL) | 3.31 µM (≈ 1.05 µg/mL) | 5.42 µM (≈ 1.73 µg/mL) | 3.19 ± 0.04 µM | 1.95 ± 0.07 µM | 8.14 ± 0.05 µM | 11.81 ± 0.07 µM | 7.54 ± 0.05 µM | 3.55 ± 0.06 µM | 48.88% | 84.3 µM |  |
| CC(C)(O)c1ccc2c(c1)CC[C@H]1[C@](C)(C(=O)O)CCC[C@]21C [Compound 4, 15-Hydroxydehydroabietic acid] | 10.8 ± 0.69 µM | 17.4 ± 0.82 µM | 23.4 ± 0.71 µM | 15.4 µM (≈ 4.88 µg/mL) | 9.83 µM (≈ 3.11 µg/mL) | 2.06 µM (≈ 0.652 µg/mL) | 4.06 µM (≈ 1.28 µg/mL) | 2.39 ± 0.03 µM | 1.21 ± 0.04 µM | 7.78 ± 0.01 µM | 10.08 ± 0.08 µM | 5.81 ± 0.02 µM | 1.16 ± 0.06 µM | 71.60% | 78.9 µM | MIC [14, 25]: 2.06 to 4.06 µM; IC50 [22]: 50.9 µM |
| O=C1C=C(Br)/C(=C/Br)O1 [Furanone C-30, (Z)-4-Bromo-5-(bromomethylene)-2(5H)-furanone, reference compound] |  |  |  |  |  |  |  | 11.81 ± 0.05 μM and 3.21 ± 0.02 μg/mL | 11.59 ± 0.03 μM and 3.03 ± 0.08 μg/mL | 12.03 ± 0.08 μM and 3.44 ± 0.06 μg/mL | 12.67 ± 0.02 μM and 3.77 ± 0.04 μg/mL |  |  |  |  | Anti-QS value of positive control [23, 26]: 11.81 µM; Anti-QS value of positive control [23, 27]: 3 µg/mL |
| CC1COc2c(N3CCN(C)CC3)c(F)cc3c(=O)c(C(=O)O)cn1c23 (centres unmarked) [OFX, Ofloxacin, reference compound] |  |  |  | 12.3 µg/mL and 28.4 µM | 11.3 µg/mL and 26.8 µM | 9.03 µg/mL and 25.1 µM | 10 µg/mL and 24.1 µM |  |  |  |  |  |  |  |  | MIC ([14]; read-out: MIC of positive control, for the compounds, strain not stated or range over the four strains): 27.7 µM; MIC ([14]; read-out: MIC of positive control, value given in the method for the extracts, strain not stated): 10 µg/mL |
